Laboratory results published in ChEMBL document CHEMBL1201862, “PubChem BioAssay data set” (2004).
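Compound exposure: 48 hours, 5 concentrations, 96-well plates. At the GI50, growth is halved.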 Activity calls are given as the source filed them. No stated cut-off is given here; in the data, active = GI50 up to about 1.1 µM and inactive = higher.

What was measured:
Test in all cases: growth of human tumour cells (NCI), 48 h
786-0 = test system: 786-0
A498 = test system: A498
BT-549 = test system: BT-549
CAKI-1 = test system: CAKI-1
HCT-15 = test system: HCT-15
HOP-92 = test system: HOP-92
Hs-578T = test system: Hs-578T
IGROV-1 = test system: IGROV-1
M14 = test system: M14
MCF7 = test system: MCF7
MOLT-4 = test system: MOLT-4
NCI-H23 = test system: NCI-H23
NCI-H460 = test system: NCI-H460
OVCAR-4 = test system: OVCAR-4
OVCAR-5 = test system: OVCAR-5
PC-3 = test system: PC-3
RXF 393 = test system: RXF 393
SF-295 = test system: SF-295
SK-OV-3 = test system: SK-OV-3
T47D = test system: T47D

Row | SMILES | GI50 (786-0) | GI50 (A498) | GI50 (BT-549) | GI50 (CAKI-1) | GI50 (HCT-15) | GI50 (HOP-92) | GI50 (Hs-578T) | GI50 (IGROV-1) | GI50 (M14) | GI50 (MCF7) | GI50 (MOLT-4) | GI50 (NCI-H23) | GI50 (NCI-H460) | GI50 (OVCAR-4) | GI50 (OVCAR-5) | GI50 (PC-3) | GI50 (RXF 393) | GI50 (SF-295) | GI50 (SK-OV-3) | GI50 (T47D)
1 | O=C1C(c2c(O)[nH]c3ccc(S(=O)(=O)O)cc23)=Nc2ccccc21 | > 100 µM (inactive) | > 100 µM (inactive) | > 100 µM (inactive) | > 100 µM (inactive) | > 100 µM | > 100 µM (inactive) | > 100 µM (inactive) | > 100 µM (inactive) | > 100 µM (inactive) | 53.5 µM (inactive) | > 100 µM (inactive) | > 100 µM (inactive) | > 100 µM (inactive) | 94.4 µM (inactive) | > 100 µM (inactive) | > 100 µM (inactive) | > 100 µM (inactive) | > 100 µM (inactive) | > 100 µM (inactive) | 72.1 µM (inactive)
2 | CC(CCCCNC(=O)OC(C)(C)C)NC(=O)NC(C)CCCCNC(=O)OC(C)(C)C (stereo not given) | > 100 µM (inactive) | > 100 µM (inactive) | > 100 µM (inactive) | > 100 µM (inactive) | > 100 µM | > 100 µM (inactive) | > 100 µM (inactive) | > 100 µM (inactive) | > 100 µM (inactive) | 95.3 µM (inactive) | 41.8 µM (inactive) | > 100 µM (inactive) | > 100 µM (inactive) | 81.5 µM (inactive) | > 100 µM (inactive) | > 100 µM (inactive) | > 100 µM (inactive) | 63.5 µM (inactive) | > 100 µM (inactive) | 83 µM (inactive)
3 | CC(=O)Nc1ccc2c(c1)/C(=C\c1ccc([N+](C)(C)C)cc1)c1ccccc1-2 | 77.8 µM (inactive) | 42.1 µM (inactive) | 34.3 µM (inactive) | > 100 µM (inactive) | > 100 µM | 18.1 µM (inactive) | 35.4 µM (inactive) | 35.4 µM (inactive) | 16 µM (inactive) | 32 µM (inactive) | 32.9 µM (inactive) | 64.4 µM (inactive) | 34.9 µM (inactive) | 35.3 µM (inactive) | 18.8 µM (inactive) | 19.9 µM (inactive) | > 100 µM (inactive) | 46.1 µM (inactive) | 61.7 µM (inactive) | 23.2 µM (inactive)
4 | O=C1N[C@H]2C(=O)c3c(Cl)sc(Cl)c3[C@H]2O1 | 14.2 µM (inactive) | 24.1 µM (inactive) | 23.3 µM (inactive) | 4.79 µM (inactive) | 3.86 µM | 7.45 µM (inactive) | 23.2 µM (inactive) | 4.69 µM (inactive) | 6.28 µM (inactive) | 16.7 µM (inactive) | 3.12 µM (inactive) | 5.94 µM (inactive) | 18.1 µM (inactive) | 2.15 µM (inactive) | 19.4 µM (inactive) | 14.2 µM (inactive) | 3.42 µM (inactive) | 16.9 µM (inactive) | 15.5 µM (inactive) | 11.6 µM (inactive)
5 | C[As+](C)(c1ccc(Br)c([N+](=O)[O-])c1)c1ccc(Br)c([N+](=O)[O-])c1 | > 100 µM (inactive) | > 100 µM (inactive) | > 100 µM (inactive) | > 100 µM (inactive) | > 100 µM | > 100 µM (inactive) | > 100 µM (inactive) | > 100 µM (inactive) | > 100 µM (inactive) | > 100 µM (inactive) | > 100 µM (inactive) | > 100 µM (inactive) | > 100 µM (inactive) | > 100 µM (inactive) | > 100 µM (inactive) | > 100 µM (inactive) | > 100 µM (inactive) | > 100 µM (inactive) | > 100 µM (inactive) | > 100 µM (inactive)
6 | COc1ccc2c(=O)c3ccoc3n(CC=C(C)C)c2c1 [ACROPHYLLINE] | > 91.6 µM (inactive) | > 63.2 µM (inactive) | 35.4 µM (inactive) | 2.99 µM (inactive) | 35.6 µM | > 26.2 µM (inactive) | 31.3 µM (inactive) | 74.5 µM (inactive) | 64.4 µM (inactive) | 33.7 µM (inactive) | 25.2 µM (inactive) | 46.1 µM (inactive) | 50.2 µM (inactive) | 44.7 µM (inactive) | > 100 µM (inactive) | 36.4 µM (inactive) | 28.5 µM (inactive) | 57.9 µM (inactive) | 44.7 µM (inactive) | 36.1 µM (inactive)
7 | O=C1OC(c2ccccc2)=N/C1=C\c1ccc(Cl)cc1 | > 100 µM (inactive) | > 100 µM (inactive) | > 100 µM (inactive) | > 100 µM (inactive) | > 100 µM | > 100 µM (inactive) | > 100 µM (inactive) | > 100 µM (inactive) | > 100 µM (inactive) | > 100 µM (inactive) | > 100 µM (inactive) | > 100 µM (inactive) | > 100 µM (inactive) | > 100 µM (inactive) | > 100 µM (inactive) | > 100 µM (inactive) | > 100 µM (inactive) | > 100 µM (inactive) | > 100 µM (inactive) | > 100 µM (inactive)
8 | C=C(C(=O)OC)c1cc2ccccc2n1S(=O)(=O)c1ccccc1 | 6.05 µM (inactive) | 2.15 µM (inactive) | 1.73 µM (inactive) | 0.82 µM (active) | 1.76 µM | 0.927 µM (active) | 4.11 µM (inactive) | 1.55 µM (inactive) | 2.67 µM (inactive) | 1.38 µM (inactive) | 2.21 µM (inactive) | 3.44 µM (inactive) | 2.21 µM (inactive) | 4.82 µM (inactive) | 5.68 µM (inactive) | 1.96 µM (inactive) | 0.792 µM (active) | 7.66 µM (inactive) | 11.3 µM (inactive) | 1.7 µM (inactive)
9 | COCN1C(N)=C(C(=O)OC(C)(C)C)C2=CC(=O)C=CC21C (stereo not given) | 11.9 µM (inactive) | 20.1 µM (inactive) | 4.24 µM (inactive) | 15.2 µM (inactive) | 13.9 µM | 5.14 µM (inactive) | 15.2 µM (inactive) | 13.1 µM (inactive) | 15.8 µM (inactive) | 11 µM (inactive) | 3.7 µM (inactive) | 15.4 µM (inactive) | 18.4 µM (inactive) | 13.6 µM (inactive) | 18.1 µM (inactive) | 16.9 µM (inactive) | 6.25 µM (inactive) | 43.6 µM (inactive) | 34.6 µM (inactive) | 2.59 µM (inactive)
10 | CCOc1cc(NC(C)=O)ccc1C(=O)NN1C(=O)C(Cl)C1c1ccco1 (stereo not given) | 16.1 µM (inactive) | 16.4 µM (inactive) | 13.5 µM (inactive) | 17.1 µM (inactive) | 19.1 µM | 19.1 µM (inactive) | 21.8 µM (inactive) | 13.1 µM (inactive) | 15.4 µM (inactive) | 13.4 µM (inactive) | 7.01 µM (inactive) | 16.6 µM (inactive) | 17.3 µM (inactive) | 14.9 µM (inactive) | 20.6 µM (inactive) | 17.9 µM (inactive) | 12.3 µM (inactive) | 16 µM (inactive) | 18.3 µM (inactive) | 16.7 µM (inactive)
